The source of these data is patent US4309439A, “Substituted-acetic acid ester” (Sumitomo Chemical Company, Limited, priority 1975, dated 1982).

For orientation: LC50 means the concentration lethal to half of the exposed cells or organisms.

Converted amounts (≈) assume the structure as drawn. Like-named read-outs stand apart in the source and are kept apart here. Bounds are passed on as bounds.

What all share (format): in vivo
Data set [1] concerns house-fly adults (Musca domestica). As to the kind of experiment: knock-down of house-fly adults by 0.1% oil spray in glass chamber (Experimental Example 3). Particulars: 0.7 ml, (70 cm)^3 glass chamber. Here is the method: Each of the following present compounds is formulated into a 0.1% oil spray using deodorized kerosene. The following compounds as a control are also likewise treated.
About 50 house-fly adults (Musca domestica) are liberated in a (70 cm)^3 glass chamber. Thereafter, 0.7 ml of each oil spray is sprayed under a pressure of 1.5 kg/cm^2 and the knock-down of the insects with the lapse of time is observed. This test is repeated several times with each oil spray to obtain the values of KT50 (time required for 50% knock-down) as shown in the following table. The present compounds are indicated by the foregoing compound number.

Data set [2] concerns smaller brown planthoppers (Laodelphax striatellus). Briefly: LC50 against smaller brown planthoppers on sprayed rice plants (Experimental Example 2). The following applies: 24 h. The protocol: The following compounds as a control are also treated in the same manner as described above.
The emulsifiable concentrates thus formulated were diluted with water to a required concentration. Each test solution thus prepared was individually sprayed on the rice plants in a pot which had elapsed 25 days after sowing, in a proportion of 10 ml/pot. Thereafter, each pot was covered with a cylindrical wire net and 15 smaller brown planthoppers (Laodelphax striatellus) were liberated in the pot. After one day, the dead and alive were observed and the value of LC50 of every concentrate was obtained from the mortality.
The compounds of the present invention are expressed by the foregoing compound number.

Data set [3] concerns Carmine mite female adults (Tetranychus cinnabarinus). As to the kind of experiment: damage of kidney beans by carmine mites (Example 20). The following applies: emulsifiable concentrate of Preparation Example 1 diluted 500 times; 10 cc/pot; after 10 days. The protocol:
To 20 parts of each of the present compounds (1), (2), (3), (4), (5), (8), (10), (11), (14), (18), (19), (21), (23), (28), (30) and (33) are added 20 parts of Sorpol SM-200 (the same as above) and 60 parts of xylene. The mixtures are each thoroughly mixed to make a solution. Thus emulsifiable concentrate of each compound is obtained.
Carmine mite female adults (Tetranychus cinnabarinus) were made parasitic on the leaves of potted kidney beans (2-leaf stage) which had elapsed 9 days after sowing, in a proportion of 10-15/leaf. […] Among the emulsifiable concentrates formulated according to Preparation Example 1, those containing the present compounds (1), (4), (14), (19), (23), (30) and (33) were each diluted 500 times with water. At this time, each test solution thus prepared was sprayed in a proportion of 10 cc/pot by means of a turn table. After 10 days, damage of the kidney beans by the insects was checked.

Data set [4] relates to armyworms and cutworms, cabbage worm and diamond-back moth. Briefly: green-house test on chinese cabbages with armyworms and cutworms, cabbage worm and diamond-back moth (Example 21). Particulars: 20% solution in cellosolve; active ingredient 50 g/10 are. The protocol: A green-house (3 m in height) was divided into plots having an area of 30 m^2 and chinese cabbages were grown up therein. Thereafter, armyworms and cutworms, cabbage worm and diamond-back moth were artificially made parasitic on the cabbages. The present compounds (1), (3) and (4) were each dissolved in cellosolve to make a 20% solution. Each test solution thus prepared was sprayed under pressure on the cabbages so that the amount of the active ingredient becomes 50 g/10 are.

Data set [5] deals with green rice leafhopper adults (Nephotettix cincticeps). Briefly: kill of green rice leafhopper adults by dusts on rice plants (Example 18). Particulars: dust of Preparation Example 6 (with piperonyl-butoxide), 3 kg/10 are; after one day; 1440 min. The protocol: One part of each of the present compounds (2), (4), (5), (7), (12), (17), (20), (21), (22), (25), (26), and (35) and 5 parts of piperonyl-butoxide are dissolved in 20 parts of acetone, and then 94 parts of 300 mesh talc are added thereto. After thoroughly mixing in a mortar while stirring, acetone is removed by evaporation. Thus dust of each compound is obtained.
Among the dusts formulated according to Preparation Example 6, those containing the present compounds (2), (7), (12), and (25) were each dusted, using Belljar duster, on the rice plants in a 1/50,000 Wagner pot which had elapsed 45 days after sowing, in a proportion of 3 kg/10 are. After covering the pot with wire net, about 30 green rice leafhopper adults (Nephotettix cincticeps) were liberated therein. After one day, more than 70% of the test insects were killed.

The mark [6] stands for this setting: rice plants sprayed 10 ml/pot, after one day, read-out: LC50.

For the molecule `C=CCC1=C(C)C(OC(=O)C2C(C=C(C)C)C2(C)C)CC1=O` (centres unmarked) [Allethrin, reference compound], the “KT50 (time required for 50% knock-down)” value in data set [1] worked out at 504 s.

As to `C#CCC=C(C)C(C#C)OC(=O)C(c1ccc(Cl)cc1)C(C)C` (stereo not drawn) [Compound 1, 4-Methylocta-4-ene-1,7-diyne-3-yl α-isopropyl-4-chlorophenylacetate], in data set [1], the “KT50 (time required for 50% knock-down)” value is 128 s. For the same molecule, the LC50 in data set [2] (setting [6]) was determined as 23 µg/mL (≈ 69.9 µM). Besides, the “increase in damage of the kidney beans” value in data set [3] is reported as “an increase in the damage was not observed”. Besides, in data set [4], the “spread of damage by the insect” value is given as “no spread of damage by the insect was observed”. With `C#CCC=C(C)C(C#C)OC(=O)C(c1ccc(Cl)c(Cl)c1)C(C)C` (stereo not drawn) [Compound 2, 4-Methylocta-4-ene-1,7-diyne-3-yl α-isopropyl-3,4-dichlorophenyl-acetate], in data set [2] (setting [6]), the LC50 came out at 31 µg/mL (≈ 85.3 µM). In addition, the test insects killed result in data set [5] is “more than 70%”.

For the molecule `C#CCC=C(C)C(C#C)OC(=O)C(c1ccc(OC)cc1)C(C)C` (stereo not drawn) [Compound 3, 4-Methylocta-4-ene-1,7-diyne-3-yl α-isopropyl-4-methoxyphenylacetate], in data set [1], the “KT50 (time required for 50% knock-down)” value was 139 s. Also, in data set [2] (setting [6]), the LC50 stood at 35 µg/mL (≈ 108 µM). The “spread of damage by the insect” value in data set [4] is “no spread of damage by the insect was observed”. In the case of `C#CCC=C(C)C(C#C)OC(=O)C(c1ccc2c(c1)OCO2)C(C)C` (stereo not drawn) [Compound 4, 4-Methylocta-4-ene-1,7-diyne-3-yl α-isopropyl-3,4-methylenedioxyphenyl-acetate], the “KT50 (time required for 50% knock-down)” value in data set [1] amounted to 136 s. In addition, the 50% lethal concentration (LC50) in data set [2] (setting [6]) is 28 µg/mL (≈ 82.7 µM). Also, the “increase in damage of the kidney beans” value in data set [3] is given as “an increase in the damage was not observed”. In addition, the “spread of damage by the insect” value in data set [4] is “no spread of damage by the insect was observed”. `C#CCC=C(C)C(C#C)OC(=O)C(c1ccc2c(c1)CCCC2)C(C)C` (stereo not drawn) [Compound 5, 4-Methylocta-4-ene-1,7-diyne-3-yl α-isopropyl-3,4-tetramethylenephenyl-acetate]: the “KT50 (time required for 50% knock-down)” value in data set [1] is 140 s. `C#CCC=C(C)C(C#C)OC(=O)C(c1coc(C)c1)C(C)C` (centres unmarked) [Compound 6, 4-Methylocta-4-ene-1,7-diyne-3-yl 2-(5-methyl-3-furyl)-isovalerate]: the LC50 in data set [2] (setting [6]) is 32 µg/mL (≈ 107 µM). For `C#CCC=C(C)C(C#C)OC(=O)C(c1csc(C)c1)C(C)C` (centres unmarked) [Compound 7, 4-Methylocta-4-ene-1,7-diyne-3-yl 2-(5-methyl-3-thienyl)-isovalerate], the “KT50 (time required for 50% knock-down)” value in data set [1] worked out at 175 s. Also, the test insects killed entry in data set [5] was “more than 70%”. For `C#CCC=C(CC)C(C#C)OC(=O)C(c1ccc(Cl)cc1)C(C)C` (stereo not drawn) [Compound 10, 4-Ethylocta-4-ene-1,7-diyne-3-yl α-isopropyl-4-chlorophenylacetate], in data set [2] (setting [6]), the median lethal concentration (LC50) was determined as 34 µg/mL (≈ 99.2 µM). Turning to `C#CCCC=C(C)C(C#C)OC(=O)C(c1ccc(Br)cc1)C(C)C` (stereo not drawn) [Compound 11, 4-Methylnona-4-ene-1,8-diyne-3-yl α-isopropyl-4-bromophenylacetate], in data set [1], the “KT50 (time required for 50% knock-down)” value is 147 s. Turning to `C#CC(OC(=O)C(c1ccc(F)cc1)C(C)C)C(C)=CCc1ccccc1` (stereo not drawn) [Compound 12, 6-Phenyl-4-methylhexa-4-ene-1-yne-3-yl α-isopropyl-4-fluoro-phenylacetate], the test insects killed result in data set [5] is reported as “more than 70%”. On to `C#CC(OC(=O)C(c1ccc(OC)cc1)C(C)C)C(C)=CCCC=C` (stereo not drawn) [Compound 14, 4-Methylnona-4,8-diene-1-yne-3-yl α-isopropyl-4-methoxyphenylacetate], for which, in data set [1], the “KT50 (time required for 50% knock-down)” value came to 174 s. Further, in data set [2] (setting [6]), the LC50 came to 46 µg/mL (≈ 135 µM). Besides, the “increase in damage of the kidney beans” value in data set [3] was “an increase in the damage was not observed”.

On to `C#CCC=C(C)C(C#C)OC(=O)C(c1ccc(OC)c(OC)c1)C(C)(C)C` (stereo not drawn) [Compound 19, 4-Methylocta-4-ene-1,7-diyne-3-yl α-t-butyl-3,4-dimethoxyphenyl-acetate], for which the LC50 in data set [2] (setting [6]) stood at 43 µg/mL (≈ 117 µM). For the same molecule, the “increase in damage of the kidney beans” value in data set [3] was “an increase in the damage was not observed”. As for `C#CCCC=C(C)C(C#C)OC(=O)C(CC)c1ccc(C#N)cc1` (stereo not drawn) [Compound 23, 4-Methylnona-4-ene-1,8-diyne-3-yl α-ethyl-4-cyanophenylacetate], the “KT50 (time required for 50% knock-down)” value in data set [1] came to 140 s. Further, the LC50 in data set [2] (setting [6]) was 50 µg/mL (≈ 157 µM). Also, the “increase in damage of the kidney beans” value in data set [3] was “an increase in the damage was not observed”.

Take `C#CCC(C(=O)OC(C#C)C(=CCCC=C)CC)c1ccc(CC)cc1` (stereo not drawn) [Compound 25, 4-Ethylnona-4,8-diene-1-yne-3-yl α-propargyl-4-ethylphenylacetate]: the test insects killed result in data set [5] was “more than 70%”. With `C#CC(C=Cc1ccccc1)OC(=O)C(c1ccc(SC)cc1)C(C)C` (stereo not drawn) [Compound 27, 5-Phenylpenta-4-ene-1-yne-3-yl α-isopropyl-4-methylthiophenyl-acetate], the LC50 in data set [2] (setting [6]) turned out to be 66 µg/mL (≈ 181 µM). With `C#CCC=C(C)C(C#C)OC(=O)C(c1cc2c(s1)CCCC2)C(C)C` (centres unmarked) [Compound 29], the LC50 in data set [2] (setting [6]) was found to be 48 µg/mL (≈ 135 µM). As for `C#CCC=C(C)C(C#C)OC(=O)C(c1cc2c(s1)CCC2)C(C)C` (centres unmarked) [Compound 30, 4-Methylocta-4-ene-1,7-diyne-3-yl 2-(4,5-tri-methylene-thienyl)-isovalerate], in data set [1], the “KT50 (time required for 50% knock-down)” value came to 158 s. In data set [3], the “increase in damage of the kidney beans” value is “an increase in the damage was not observed”. For the molecule `C#CCC=C(C)C(C#C)OC(=O)C(c1ccc2c(c1)CCC2)C(C)C` (centres unmarked) [Compound 33, 4-Methylocta-4-ene-1,7-diyne-3-yl 2-(5-indanyl)-isovalerate], in data set [3], the “increase in damage of the kidney beans” value is “an increase in the damage was not observed”. As to `C#CCC=C(C)C(C#C)OC(=O)C(c1cc2ccccc2o1)C(C)C` (centres unmarked) [Compound 34, 4-Methylocta-4-ene-1,7-diyne-3-yl 2-(2-benzo-furyl)-isovalerate], in data set [1], the “KT50 (time required for 50% knock-down)” value worked out at 170 s.

`CNC(=O)Oc1ccccc1Cl` [Hopcide, reference compound] gave a 50% lethal concentration (LC50) in data set [2] of 75 µg/mL (≈ 404 µM). Take `CC(C)=CC1C(C(=O)OCc2coc(Cc3ccccc3)c2)C1(C)C` (centres unmarked) [Resmethrin, reference compound]: in data set [1], the “KT50 (time required for 50% knock-down)” value was over 600 s.

Turning to `COc1ccc(C(C(=O)OC(C#N)c2cccc(Oc3ccccc3)c2)C(C)C)cc1` (centres unmarked) [drawing 45, reference compound], in data set [2] (setting [6]), the LC50 turned out to be 73 µg/mL (≈ 176 µM). For the molecule `COc1ccc(C(C(=O)OC(C#N)c2cccc(Oc3ccccc3)c2)C(C)C)cc1` (centres unmarked) [drawing 50, reference compound], the “KT50 (time required for 50% knock-down)” value in data set [1] amounted to 490 s. For the molecule `COc1ccc(C(C(=O)OCc2cccc(Oc3ccccc3)c2)C(C)C)cc1` (centres unmarked) [reference compound], in data set [2] (setting [6]), the LC50 was 87 µg/mL (≈ 223 µM). On the same count and under the same terms, to `C#CCc1ccc(COC(=O)C(c2ccc(Cl)cc2)C(C)C)o1` (centres unmarked) [reference compound] belongs 68 µg/mL (≈ 206 µM). With `CC(C)C(C(=O)OCc1coc(Cc2ccccc2)c1)c1ccc(Cl)cc1` (centres unmarked) [reference compound], the “KT50 (time required for 50% knock-down)” value in data set [1] turned out to be 510 s. Consider `C#CCc1ccc(C(C#C)OC(=O)C(c2ccc(OC)cc2)C(C)C)o1` (centres unmarked) [reference compound], for which the “KT50 (time required for 50% knock-down)” value in data set [1] is 183 s.
